Assay results published in patent US10695311B2, “Solution for ophthalmology” (priority 2016, dated 2020).

Key:
[1] = system: lens capsule and hemidesmosomes; test: Studies by the inventor with lysine solutions (lens capsule / hemidesmosomes); details: lysine solutions having a lower concentration
[2] = system: lens capsule; test: Surgical studies within the scope of extracapsular procedures; assay type: in vivo; details: L-lysine concentrations of up to 5%
Source text: (§1) The surgical result is therefore permanent; further procedures for treatment of possible capsule fibrosis are rarely or never necessary. The solution according to the invention can be used with every phacoemulsification, with or without lens implantation, to clean the posterior capsule. In this regard, the solution according to the invention can be produced from commercially available L-lysine. In particular, the solution can be present as a flushing solution.
When performing the extracapsular operation, it has proven to be practical to apply 1 to 5 ml of the L-lysine according to the invention to the posterior capsule after removal of the cloudy lens core and the subcapsular cortex layer (Cortex lentis), using an anterior-chamber cannula. After a sufficient period of action, the solution is suctioned away and rinsed off. In this regard, the period of action is primarily dependent on the concentration of the solution. For a solution with a concentration of 2 wt.-%, it lies between 30 s and 5 min, preferably at approximately 1 min. The period of action should not amount to more than 5 min, preferably not more than 3 min.

[3] = system: zonula fibers and posterior capsule of donor eyes; test: Experiments on donor eyes; details: the corneas of which were used for cornea transfers, L-lysine in the concentration indicated above (0.5-3.5 wt.-%)
Source text: as §1

NCCCC[C@H](N)C(=O)O [L-lysine]
damage to the lens capsule [1]: damage to the lens capsule does not occur
digestion of the hemidesmosomes [1]: digestion of the hemidesmosomes still takes place to a sufficient extent
integrity of lens capsule during and after the procedure [2]: the lens capsule remained intact during and after the procedure
prevention of capsule fibrosis after the procedures [2]: it was possible to prevent capsule fibrosis after the procedures
attack on zonula fibers and posterior capsule [3]: neither the zonula fibers nor the posterior capsule are attacked
